Laboratory results reported in US20200190593A1, “SPLICEOSOME MUTATIONS AND USES THEREOF” (EISAI R&D MANAGEMENT CO., LTD., priority 2017, published 2020).
“Also recorded” adds a separate entry of the source.

What was measured:
[1] = system: HCT116 cells; assay: CellTiter-Glo growth inhibition, parental HCT116; type: cell-based; conditions: in HCT116
Experimental: Parental HCT116 cells were obtained from ATCC and cultured in RPMI 1640 medium (Thermo Fisher, GIBCO #11875) supplemented with 10% FBS. Parental Panc0504 cells were obtained from ATCC and cultured in GIBCO RPMI 1640 medium (Thermo Fisher, GIBCO #11875) supplemented with glucose (to 4.5 g/L final), HEPES (10 mM final), sodium pyruvate (1 mM final), human insulin (10 μg/ml final) and 15% FBS. Cell line authentication was achieved by genetic profiling using polymorphic short tandem repeat (STR) loci (ATCC). All cell lines were free of mycoplasma contamination. Lenti-X-293T cells (Clontech Laboratories, Inc. Cat #632180), a cell line for lentiviral packaging, was maintained in Dulbecco's modified Eagle's medium (Thermo Fisher, GIBCO #11965) containing 10% fetal bovine serum and 4 mM L-glutamine. WT PHF5A cDNA was obtained from Genecopoeia and cloned into a pDONR 221 vector (Thermo Fisher). Sequence verified positive clones were cloned into pLenti6.3N5 vector (Thermo Fisher) through LR recombination. Mutagenesis of Y36 and V37 were carried using Agilent Quickchange II kit following manufacturer's recommendation using the PHF5A WT plasmid. All primers used for mutagenesis were designed used the QuikChange Primer Design tool by Agilent. Verified positive clones of PHF5A Y36 or V37 variants were used for lentivirus production using X293T cells. Parental HCT116 cells and Panc0504 cells were then infected with virus containing medium and selected with Blasticidin S (Thermo Fisher) at 10 μg/ml for one week. Engineered cell lines were maintained in the same medium without antibiotics. The following primary antibodies were used at 1:1000 dilution for western blot analysis in LI-COR buffer (LI-COR): α-SF3B1 mouse monoclonal antibody (MBL, D221-3), α-SF3B3 rabbit polyclonal antibody (Protein Tech, 14577-1-AP), α-SF3B4 goat polyclonal antibody (Santa Cruz, 14276), α-SF3B6/p14 rabbit polyclonal antibody (Protein Tech, 12379-1-AP), α-PHF5A rabbit polyclonal antibody (Protein Tech, 15554-1-AP). α-GAPDH rabbit polyclonal antibody (Sigma, G9545) was used at 1:10,000. […]
(§1) For CellTiter-Glo analysis, 500 cells were seeded in each well of a 384-well plate the day before compound addition. […] 72 hours post compound addition; CellTiter-Glo reagent was added to the medium, incubated and assayed on EnVision Multilabel Reader (PerkinElmer). The luminescence value from each treatment sample was normalized to the average value of the respective DMSO control. […] For heatmap summarization of IC50 shifts, IC50 value were extracted from dosage response curves and the fold changes of IC50 values in PHF5A variants expressing lines over that of the WT lines were calculated and plotted using TIBCO Spotfire software. […]

[2] = system: HCT116 resistant clones carrying SF3B1 (R1074H, V1078A/I) or PHF5A Y36C mutations; assay: CellTiter-Glo growth inhibition profiling of E7107/herboxidiene resistant HCT116 clones; type: cell-based; conditions: 72 hour CellTiter-Glo, HCT116 resistant clones vs parental
Experimental: 2.5 million HCT116 cells were seeded in each 10 cm dish and treated with indicated dosages of splicing modulators for 2 weeks. Compounds were refreshed every 4 days. When needed, confluent dishes were split 1:3 and cells were allowed to recover overnight without splicing modulator treatment after re-seeding. At the end of the compound selection period, surviving individual clones were picked and transferred to 12-well plates. Individual resistant clones were further expanded without splicing modulator treatment and 1 million cells from each clone were pelleted for genomic DNA extraction using the DNeasy Blood & Tissue Kit from Qiagen. Whole exome sequencing (WXS) libraries were generated by Novogene Corporation using Agilent SureSelect Human All Exon V6 kit and sequenced on Illumina HiSeq platform. 12G raw data were gathered for each sample. WXS reads were then aligned to hg19 by BWA-MEM (Shi et al., Nature biotechnology 33, 661-7 (2015)) and somatic mutations were identified with MuTect2 (Schenone et al., Nature chemical biology 9, 232-40 (2013)) through Sentieon pipeline (Wacker et al., Nature chemical biology 8, 235-7 (2012)) by pairing resistant clone with parental cell lines. As the resistant clones for WXS were selected, the allele frequencies for the mutations which are responsible for the resistance should be high. Non-silent mutations (among the H3 curated spliceosome genes) with allele frequency higher than 0.2 were focused on.
For CellTiter-Glo analysis, 500 cells were seeded in each well of a 384-well plate the day before compound addition. An 11 part serial dilution was used starting with a top final dosage of 10 μM for ten additional doses. DMSO percentage was maintained throughout and a DMSO only control was included. 72 hours post compound addition; CellTiter-Glo reagent was added to the medium, incubated and assayed on EnVision Multilabel Reader (PerkinElmer). The luminescence value from each treatment sample was normalized to the average value of the respective DMSO control. The dosage response curve plots were generated using Graphpad Prism 6 and fit using nonlinear regression analysis and the log (inhibitor) vs. response—Variable slope (four parameters). For heatmap summarization of IC50 shifts, IC50 value were extracted from dosage response curves and the fold changes of IC50 values in PHF5A variants expressing lines over that of the WT lines were calculated and plotted using TIBCO Spotfire software. For IC50s greater than the top dosage, the values were arbitrarily set at 10 μM. Unsupervised clustering analysis was performed in TIBCO Spotfire using the following default parameters: Clustering method: UPGMA; Distance measure: Euclidean; Ordering weight: Average value; Normalization: (None); Empty value replacement: Constant value: 0.

[3] = system: PHF5A Y36C over-expressing PANC0504 cells; assay: Growth inhibition in PANC0504 cells over-expressing PHF5A Y36C; type: cell-based
Experimental: Parental HCT116 cells were obtained from ATCC and cultured in RPMI 1640 medium (Thermo Fisher, GIBCO #11875) supplemented with 10% FBS. Parental Panc0504 cells were obtained from ATCC and cultured in GIBCO RPMI 1640 medium (Thermo Fisher, GIBCO #11875) supplemented with glucose (to 4.5 g/L final), HEPES (10 mM final), sodium pyruvate (1 mM final), human insulin (10 μg/ml final) and 15% FBS. Cell line authentication was achieved by genetic profiling using polymorphic short tandem repeat (STR) loci (ATCC). All cell lines were free of mycoplasma contamination. […]
as §1

[4] = system: MCL1 splicing (ES/IR events) in PHF5A WT expressing HCT116 cells; assay: Taqman gene expression analysis of MCL1 isoforms, PHF5A WT cells; type: cell-based; conditions: 4 hour treatment
Experimental: (§2) 8000 cells of indicated genotypes were seeded in each well of 96-well plate and allowed to settle overnight. On the second day, 11 points serial dilution (1:4 fold dilution across) of indicated compound with a top dosage of 10 μM final was added to the culturing medium. 4 hour post compound addition, culturing medium was decanted and washed once with PBS. PBS was then decanted completely from the plate and Lysis buffer (plus DNase I) from TaqMan Gene Expression Cells-to-CT Kit (Thermo Fisher, cat # AM1729) was added according to the manual. After 5 mins incubation at room temperature on the shaker, stop solution was added to each well and incubated for 2 min. Reverse transcription was set up immediately using the Cells-to-CT Kit and cDNAs were used for quantitative real time PCR analysis using Viia7 (Thermo Fisher). Each reaction is multiplexed with a FAM labelled probe targeting specific target gene splicing isoforms and a VIC labelled probe targeted 18S rRNA as loading control. Therefore, the FAM Ct value in each well was first normalized to the VIC Ct value in the same well before further normalization to the FAM/VIC ratio of DMSO treated control samples to calculate fold change over DMSO. Graphs were generated using Graphpad Prism 6, n=2. Taqman gene expression probes used in these assays are: […]

[5] = system: MCL1 splicing (ES/IR events) in PHF5A Y36C expressing HCT116 cells; assay: Taqman gene expression analysis of MCL1 isoforms, PHF5A Y36C cells; type: cell-based; conditions: PHF5A-Y36C cells compared to WT, increasing dosage
Experimental: as §2

[6] = system: global splicing in PHF5A WT expressing HCT116 cells; assay: Whole transcriptome RNA-seq differential splicing, PHF5A WT cells; type: cell-based
Experimental: (§3) Either PHF5A WT or Y36C mutant overexpressing cells were treated with either DMSO or E7107 (100 nM and 10 μM) for 6 hours in quintuplicate before lysed in TRIzol reagent (Thermo Fisher). After phase separation, top aqueous phase was further processed using MagMAX™-96 Total RNA Isolation Kit (Thermo Fisher, AM1830) for RNA extraction. RNA quality was assessed using Agilent tapestation with RNA screen tape. RNA-seq libraries were prepared by Beijing Genomic Institute (BGI) and sequenced on Illumina Hiseq 4000 for 6G clean reads per sample. RNA-seq reads were aligned to hg19 by STAR (Dobin et al., Bioinformatics 29, 15-21 (2013)) and raw junction counts generated by STAR were used for calculating percent spliced in (PSI) to quantify splice junction usage relative to all other splice junctions that share the same splice site as described before (Darman et al., Cell reports 13, 1033-45 (2015)). Differential PSI were assessed between a pair of sample groups using moderated t-test defined in limma package (Smyth, Statistical applications in genetics and molecular biology 3, Article3 (2004)) in Bioconductor. The statistical p-values were corrected using the Benjamini-Hochberg procedure and q-values less than or equal to 0.05 were considered statistically significant. Gene IDs associated with significant splicing changes upon E7107 treatment as compared to DMSO in either PHF5A WT or Y36C cells were used for generation of the Venn Diagram using online tool (http://bioinformatics.psb.ugent.be/webtools/Venn/). PHF5A WT or Y36C specific genes identified from the Venn Diagram analysis were then subject to Gene Set Enrichment Analysis (GSEA) (http://software.broadinstitute.org/gsea/msigdb/annotate.jsp) using the Kyoto Encyclopedia of Genes and Genomes (KEGG) pathway database.
The number of reads which cover the splice junction which excludes a given cassette exon (exon skipping reads) were compared with both the number of spliced reads which share its 3′ splice site yet have an alternative 5′ splice site bordering the cassette exon (exon inclusion reads) and the number of reads which cross the exon-intron boundary at that same 3′ splice site (intron retention reads.) These counts were summed and their fractions from the percent spliced in (PSI) for the exon skipping event, the exon inclusion event, and the intron retention event, respectively, at that locus. The PSI for all significant exon skipping events derived from the comparison between 100 nM E7107 treatment in PHF5A Y36C cells and the respective DMSO controls (3883 events) and the PSI for the intron retention junction at the same locus were plotted. For all other treatments, the PSI of the exon skipping junction and the intron retention junction for each locus were plotted in the same order. PSI is averaged over samples in quintuplicate.

[7] = system: global splicing in PHF5A Y36C expressing HCT116 cells; assay: Whole transcriptome RNA-seq differential splicing, PHF5A Y36C cells; type: cell-based
Experimental: as §3, with “Gene IDs associated with significant splicing changes upon E7107 treatment as compared to DMSO in either PHF5A WT or Y36C cells were used for generation of the Venn Diagram using online tool (http://bioinformatics.psb.ugent.be/webtools/Venn/). PHF5A WT or Y36C specific genes identified from the Venn Diagram analysis were then subject to Gene Set Enrichment Analysis (GSEA) (http://software.broadinstitute.org/gsea/msigdb/annotate.jsp) using the Kyoto Encyclopedia of Genes and Genomes (KEGG) pathway database.” left out

[8] = molecular target: T1, SF3B1 R1074H (Homo sapiens, UniProt O75533+Q7RTV0, R1074H); conditions: Yokoi et al. 2011; cited from earlier work
T1 construct: endogenous in cells; WiDr clones in the cited Yokoi et al. work

Compound	GI50 ([1]; Homo sapiens, HCT-116) [nM]	resistance conferred by mutations in resistant clones (growth inhibition profiling) [2]	resistant phenotype upon PHF5A Y36C over-expression [3]	dose-dependent induction of MCL1 ES and IR events [4]	also measured
CC[C@H](O)[C@@H](C)[C@H]1O[C@@H]1C[C@@](C)(O)/C=C/C=C(\C)C1OC(=O)C[C@H](O)CC[C@@](C)(O)[C@@H](OC(=O)N2CCN(C3CCCCCC3)CC2)/C=C/[C@@H]1C (stereo partly drawn) [Compound E7107]	1.5	SF3B1-R1074H mutation conferred the most robust resistance	partial resistant phenotype	“earlier” induction of MCL1 ES events than IR events at lower doses	MCL1-S production (ES events) [5]: enhanced to a higher level; number of introns with induced aberrant splicing ([6]; E7107, FIG. 4A): approximately 20,000; number of the 3883 Y36C related ES junctions showing reduced ES PSI and increased IR PSI in WT cells ([6]; E7107 treated WT vs Y36C cells): 2470; share of Y36C related ES junctions showing reduced ES PSI and increased IR PSI in WT cells ([6]; E7107 treated WT vs Y36C cells): ~64%; differential splicing events vs DMSO ([6]; PHF5A WT cells, 100 nM E7107): intron-retention (IR) events were predominant; MCL1 isoform events in RNA-seq sashimi plots ([6]; PHF5A WT cells, E7107 treatment): IR was the dominant event observed; differential splicing events vs DMSO ([7]; 100 nM E7107): the overall amount of IR events and their average fold change were greatly reduced; also recorded: the number of compound induced exon-skipping (ES) events was increased; MCL1 isoform events in RNA-seq sashimi plots ([7]; E7107 treatment): mainly ES events were observed yielding the MCL1-S form; effect of SF3B1 R1074H substitution on compound activity [8]: almost completely abolishes the splicing-modulating and anti-proliferative effects
CC(C)C[C@H](NC(=O)[C@H](Cc1ccccc1)NC(=O)c1cnccn1)B(O)O [bortezomib]		did not affect the cell lines sensitivity	not		
CO[C@H]([C@@H](C)[C@H]1O[C@]1(C)C[C@H](C)/C=C/C=C(\C)[C@H]1O[C@@H](CC(=O)O)CC[C@@H]1C)[C@@H](C)O [herboxidiene]	7.6	PHF5A-Y36C mutation rendered more resistance		even more pronounced effect	
CO[C@]1(C)C[C@@]2(CO2)[C@H](O)[C@@H](/C=C/C(C)=C/C[C@@H]2O[C@H](C)[C@H](NC(=O)/C=C\[C@H](C)OC(C)=O)C[C@@H]2C)O1 [spliceostatin A]		SF3B1-R1074H mutation also conferred better resistance; also recorded: show resistance to the Y36C clone			GI50 [1]: 0.76 nM
CNC(=O)O[C@@H](C)/C=C\C(=O)N[C@H]1CC[C@@H](C/C=C(C)/C=C/[C@@H]2C[C@]3(CO3)CC(C)(C)O2)CC1 [sudemycin D6]	149	SF3B1-R1074H mutation also conferred better resistance		IR events were not observed	
sudemycin D6		show resistance to the Y36C clone			
